Patent US7964736B2, “Phosphagen synthesis” (Nour Heart, Inc., priority 2004, dated 2011)
Read-outs that look alike come from different tables or passages of the source.

Columns and labels:
[1] = system: canine heart, regional warm ischemia (LAD); conditions: cited from earlier work
[2] = system: canine heart, hypothermic cardioplegic arrest; conditions: cited from earlier work; for results (restoration of cardiac function): canine
[3] = system: rat heart, global warm ischemia; conditions: ischemia time 7, 9, 10 min; cited from earlier work
[4] = system: ischemic isolated rat hearts; conditions: cited from earlier work
[5] = system: canine heart, regional warm ischemia (LAD); experiment: Regional warm ischemia (LAD), intact AMI model: coronary artery occlusion followed by reperfusion; assay type: in vivo; conditions: LAD for 1 hour, and 2 hours reperfusion
[6] = system: isolated rabbit hearts; conditions: cited from earlier work
[7] = system: isolated rabbit hearts; experiment: Isolated ischemic rabbit hearts; assay type: in vivo
[8] = system: heart (cardioprotection); experiment: Dose-response study of cardioprotective effect; assay type: in vivo
[9] = system: dog hearts; experiment: Inotropic or chronotropic effect on dog hearts; assay type: in vivo
Description: As described above, although the mechanism by which CCr preserves the heart during ischemia and restores cardiac function during reperfusion is not fully understood, it is likely to be related to preservation of ATP. […] Since the breakdown of ATP is the immediate source of energy for contraction, and that contractile performance decreases precipitously and ceases when only 20% of ATP is depleted, the reported CCr preservation of over 85% of ATP (loss of only 15%) in ischemic myocardium is likely the major contributor to the observed restoration of post-ischemic myocardial contractility (see Allam M E, et al., Surg. Forum XLI:246-249, 1990, which is incorporated by reference in its entirety).

[10] = system: rat hearts, normothermic cardioplegic arrest; conditions: ischemia time 40 min; cited from earlier work
[11] = system: chopped whole brain; conditions: 0.5% in-vitro for 90 minutes; cited from earlier work
[12] = intact canine model, coronary artery occlusion followed by reperfusion

For `NC1=NCCN1CC(=O)O` [CCr, 1-carboxymethyl-2-iminoimidazolidine], the “ATP maintained, of normal non-ischemic levels” value [1, 12] is listed as 85%, the “CrP maintained, of normal non-ischemic levels” value [1, 12] is listed as 97% and the “loss of ATP” value [1, 12] is listed as 15%. The “loss of CrP” value [1, 12] was 3%, the “results (restoration of cardiac function)” value (shortened to “results”) ([1]; ischemia time 1 hr, canine, drug prior to ischemia) was “Restoration” and the “preservation of ATP” value ([1]; ischemic myocardium) was “over 85%”. For the same compound, the defibrillation ([2]; bypass surgery model, untreated canines required external defibrillation) was “defibrillated spontaneously”, the “results” value ([2]; ischemia time 1 hr) was “Restoration” and the “results” value ([2]; ischemia time 3 hrs) was “Restoration”. For the same compound, the “results” value [3] was “Restoration”, the defibrillation during reperfusion ([4]; fed rats versus control rats) was “spontaneously defibrillated sooner” and the “reduction of myocardial ATP, exhaustion of high-energy phosphates, onset of rigor tension during cardiac ischemia” value ([4]; long-term feeding (up to 3 weeks) with 1%, rats and chickens) was “significantly delayed”. The “ATP depletion and onset of rigor” value ([4]; prior feeding to rats, ischemic isolated hearts) was “delayed ATP depletion and the onset of rigor”, the “number of hearts recovering mechanical function upon reperfusion” value ([4]; treated rats compared to controls) was “significantly higher” and the “cell damage compared to control hearts” value [5] was “marked reduction in cell damage”. The “levels of ATP and CrP” value ([6]; isolated ischemic rabbit hearts) was “maintained high levels”, the Nourin-1 released ([6]; treated hearts versus controls) was “significant reduction” and the tissue damage ([7]; 600 mg/kg intravenous for 2 hours prior to removing and perfusing hearts in-vitro for two hours) was “did not induce tissue damage”. The “histology after 2 hours reperfusion (contraction bands, eosinophilic changes)” value ([7]; 600 mg/kg intravenous, versus control hearts) was “only occasional small foci of contraction bands and no significant eosinophilic changes”, the “protection (Nourin-1, ATP and CrP levels)” value ([7]; hearts perfused with drug, without preinjection) was “no protection was observed” and the cardioprotective effect ([8]; 150 mg/kg) was “No effect”. The cardioprotective effect ([8]; 300 mg/kg) was “strong cardioprotective effect”, the cardioprotective effect ([8]; 600 mg/kg) was “strong cardioprotective effect” and the “inotropic or chronotropic effect” value [9] was “no inotropic or chronotropic effect”. For the same compound, the “results” value [10] was “Restoration” and the “protection of brain tissues from ischemic injury” value [11] was “protected”.

For `CN(CC(=O)O)C(=N)N` [Cr, creatine, reference compound], the “ATP and CrP lost” value ([6]; isolated ischemic rabbit hearts, control treatment) is given as “more than 95%”.
